Earlier results, collected in patent publication US20210319872A1, “DRUG AND DEVICE COMBINATION PRODUCTS WITH IMPROVED SAFETY AND EFFICACY PROFILES” (priority 2016, published 2021).
Read-outs that look alike come from different tables or passages of the source. Each block holds one molecule with its values, some of them ahead of it.

Ventricular tachycardia (in vivo): ≤ 12.4%)
Structure (SMILES): CN(CCOc1ccc(NS(C)(=O)=O)cc1)CCc1ccc(NS(C)(=O)=O)cc1 [Tikosyn]
Chest pain (in vivo): Cardiovascular: Chest pain (10%) | Dizziness (in vivo): Neurologic: Dizziness (8%), Headache (11%) | Headache (in vivo): Neurologic: Dizziness (8%), Headache (11%) | Heart block (in vivo): Cardiovascular: Heart block (up to 1.2%), Prolonged QT interval, | Torsades de pointes (in vivo): Torsades de pointes (0.8%), Ventricular arrhythmia (up to 14.5%), | Ventricular arrhythmia (in vivo): Torsades de pointes (0.8%), Ventricular arrhythmia (up to 14.5%), | Serious side effect, Cardiovascular (listed without frequency): Cardiovascular: Heart block (up to 1.2%), Prolonged QT interval,

Structure (SMILES): CC(C)(C)NC[C@H](O)COc1nsnc1N1CCOCC1 [Timolol (Blocadren)]
Burning sensation in eye (in vivo): sensation in eye (Ophthalmic, 12.5% to 20%), Dry eyes | Cardiac dysrhythmia (in vivo): Cardiovascular: Cardiac dysrhythmia (1%), Myocardial infarction | Confusion (in vivo): Neurologic: Confusion (13%), Dizziness (2.3% to 6%, oral), | Depression (in vivo): Psychiatric: Depression (9.2%, ophthalmic), Hallucinations (11%), | Hallucinations (in vivo): Psychiatric: Depression (9.2%, ophthalmic), Hallucinations (11%), | Headache (in vivo): Headache (1.7%, oral; 1% to 5%, ophthalmic) | Psychotic disorder (in vivo): Psychotic disorder (3%) | Serious side effects, listed without incidence or only as rare (in vivo): Cardiovascular: Cardiac dysrhythmia (1%), Myocardial infarction | Bradyarrhythmia (in vivo, po): Cardiovascular: Angina, Bradyarrhythmia (5% to 9.1%, oral), | Bronchospasm (in vivo, po): Respiratory: Bronchospasm (0.6%, oral) | Dizziness (in vivo, po): Neurologic: Confusion (13%), Dizziness (2.3% to 6%, oral), | Dyspnea (in vivo, po): Respiratory: Cough, Dyspnea (1.7%, oral) | Fatigue (in vivo, po): Other: Fatigue (3.4% to 5%, oral), Infectious disease | Headache (in vivo, po): Headache (1.7%, oral; 1% to 5%, ophthalmic) | Heart failure (in vivo, po): Heart failure (8%, oral), Hypotension

Structure (SMILES): CC1(C)O[C@@H]2[C@@H](CO[C@@]3(COS(N)(=O)=O)OC(C)(C)O[C@@H]23)O1 [Topiramate (Topamax)]
Confusion (in vivo): Neurologic: Confusion (3% to 11%), Dizziness (4% to 25%), | Dizziness (in vivo): Neurologic: Confusion (3% to 11%), Dizziness (4% to 25%), | Fatigue (in vivo): Other: Fatigue (6% to 16%), Fever (1% to 12%) | Fever (in vivo): Other: Fatigue (6% to 16%), Fever (1% to 12%) | Flushing (in vivo): Dermatologic: Flushing (pediatrics, 5%) | Hyperammonemia (in vivo): Endocrine metabolic: Hyperammonemia (Adolescents, 26%), | Impaired cognition (in vivo): Impaired cognition (2% to 7%), Impaired psychomotor | Impaired psychomotor performance (in vivo): performance (2% to 13%), Memory impairment (3% to 12%), | Infectious disease (in vivo): Immunologic: Infectious disease (2% to 8%) | Memory impairment (in vivo): performance (2% to 13%), Memory impairment (3% to 12%), | Nephrolithiasis (in vivo): Renal: Nephrolithiasis (adults, 1% to 3%) | Serious side effect, Endocrine metabolic (in vivo): Hypohidrosis, Increased body temperature, Metabolic acidosis | Serious side effect, Hepatic (in vivo): Hepatic: Liver failure | Serious side effect, Neurologic (in vivo): Neurologic: Drug-induced encephalopathy | Serious side effect, Ophthalmic (in vivo): Ophthalmic: Glaucoma, Myopia, Visual field defect (epilepsy, | Serious side effect, Psychiatric (in vivo): Psychiatric: Suicidal thoughts | Somnolence (in vivo): 10%), Somnolence (6% to 29%) | Visual field defect (in vivo): 0.1% to 1%) | Weight decreased (in vivo): (4% to 21%)

Decreased hemoglobin (in vivo): Hematologic: Decreased hemoglobin (6%) | Headache (in vivo): Neurologic: Headache (up to 24%) | Hypotension (in vivo): 7% | Increased liver aminotransferase level (in vivo): ≤ 11% | Palpitations (in vivo): 5%
Structure (SMILES): COc1ccccc1Oc1c(NS(=O)(=O)c2ccc(C(C)(C)C)cc2)nc(-c2ncccn2)nc1OCCO [Tracleer]
Decreased hemoglobin (Severe) (in vivo): Hematologic: Decreased hemoglobin (Severe) (3%) | Serious side effect, Other (listed without frequency): Other: Angioedema

Hypoglycemia (combination therapy): combination therapy, 22.9%) | Nasopharyngitis (in vivo): Respiratory: Nasopharyngitis (7%)
Structure (SMILES): CC#CCn1c(N2CCC[C@@H](N)C2)nc2c1c(=O)n(Cc1nc(C)c3ccccc3n1)c(=O)n2C [Tradjenta]
Hypoglycemia (monotherapy): Endocrine metabolic: Hypoglycemia (monotherapy, 6.6%;

Structure (SMILES): COc1cccc(C2(O)CCCCC2CN(C)C)c1 (stereo not shown) [Tramadol (Ultram)]
Anaphylactoid reaction (in vivo): Immunologic: Anaphylactoid reaction (less than 1%) | Constipation (in vivo): Gastrointestinal: Constipation (10% to 46%), Nausea (13% to | Dizziness (in vivo): Neurologic: Dizziness (7% to 33%), Headache (3% to 32%), | Dyspnea (in vivo): Respiratory: Dyspnea (less than 5%), Respiratory depression | Flushing (in vivo): Dermatologic: Flushing (7.7% to 15.8%), Pruritus (3% to 11.9%) | Headache (in vivo): Neurologic: Dizziness (7% to 33%), Headache (3% to 32%), | Insomnia (in vivo): Insomnia (1% to 10.9%), Somnolence (4% to 25%) | Myocardial infarction (in vivo): Cardiovascular: Myocardial infarction (0.5% to less than 1%) | Pancreatitis (in vivo): Gastrointestinal: Pancreatitis (0.5% to less than 1%) | Pruritus (in vivo): Dermatologic: Flushing (7.7% to 15.8%), Pruritus (3% to 11.9%) | Serotonin syndrome (in vivo): Other: Serotonin syndrome (less than 1%) | Somnolence (in vivo): Insomnia (1% to 10.9%), Somnolence (4% to 25%) | Vomiting (in vivo): 40%), Vomiting (3% to 17%), Xerostomia (1% to 10%) | Xerostomia (in vivo): 40%), Vomiting (3% to 17%), Xerostomia (1% to 10%)

Structure (SMILES): CCOC(=O)[C@H](CCc1ccccc1)N[C@@H](C)C(=O)N1[C@H](C(=O)O)C[C@H]2CCCC[C@@H]21 [Trandolapril (Mavik)]
Cardiogenic shock (in vivo): Cardiovascular: Cardiogenic shock (3.8%), Intermittent | Cough (in vivo): Respiratory: Cough (1.9% to 35%) | Dizziness (in vivo): Neurologic: Dizziness (1.3% to 23%) | Hyperkalemia (in vivo): Endocrine metabolic: Hyperkalemia (0.3% to 5.3%) | Hypotension (in vivo): Cardiovascular: Hypotension (0.6% to 11%), Syncope (5.9%) | Indigestion (in vivo): Gastrointestinal: Indigestion (0.3% to 6.4%) | Intermittent claudication (in vivo): claudication (3.8%) | Serum blood urea nitrogen raised (in vivo): Renal: Serum blood urea nitrogen raised (9%) | Syncope (in vivo): Cardiovascular: Hypotension (0.6% to 11%), Syncope (5.9%)

Structure (SMILES): O=c1n(CCCN2CCN(c3cccc(Cl)c3)CC2)nc2ccccn12 [Trazodone (Desyrel)]
Backache (in vivo): Musculoskeletal: Backache (5%) | Confusion (in vivo): Neurologic: Confusion (up to 5.7%), Dizziness (25%), Headache | Constipation (in vivo): Gastrointestinal: Constipation (7% to 8%), Diarrhea (up to 9%), | Diarrhea (in vivo): Gastrointestinal: Constipation (7% to 8%), Diarrhea (up to 9%), | Dizziness (in vivo): Neurologic: Confusion (up to 5.7%), Dizziness (25%), Headache | Fatigue (in vivo): Other: Fatigue (5.7% to 15%) | Hypersensitivity reaction (in vivo): Immunologic: Hypersensitivity reaction (less than 1%) | Hypotension (in vivo): Cardiovascular: Cardiac dysrhythmia, Hypotension (3.8% to 7%), | Nausea (in vivo): Nausea (21%), Vomiting (at least 1%), Xerostomia (14% to 33.8%) | Vomiting (in vivo): Nausea (21%), Vomiting (at least 1%), Xerostomia (14% to 33.8%) | Xerostomia (in vivo): Nausea (21%), Vomiting (at least 1%), Xerostomia (14% to 33.8%)

Structure (SMILES): CC1(C)O[C@@H]2[C@@H](CO[C@@]3(COS(N)(=O)=O)OC(C)(C)O[C@@H]23)O1 [Trokendi XR]
Hyperammonemia (Adolescents): Endocrine metabolic: Hyperammonemia (Adolescents, 26%), | Serious side effect, Hepatic (listed without frequency): Hepatic: Liver failure | Serious side effect, Neurologic (listed without frequency): Neurologic: Drug-induced encephalopathy | Serious side effect, Psychiatric (listed without frequency): Psychiatric: Suicidal thoughts | Flushing (pediatrics): Dermatologic: Flushing (pediatrics, 5%)
